PMC10655131 (Journal of medicinal chemistry, 2021)
pIC50: −log10 of the molar value.

Columns and labels:
TZM-bl cells = settings: read-out: CC50 (cytotoxicity), XTT, three days; cited from earlier work
recombinant HIV-1 RT [1] = assay: colorimetric Reverse Transcriptase Assay; format: biochemical
HIV-1HXB2 = format: cell-based; settings: antiviral EC50 relative to best inhibitor (NBD-14189)
recombinant HIV-1 RT [2] = settings: read-out: IC50 (Anti-HIV RT enzyme inhibition activity); mean ± SD, n = 3; cited from earlier work

For `NC[C@@H](NC(=O)c1ccc(-c2ccc(C(F)(F)F)cn2)[nH]1)c1ncc(C(O)CO)s1` (some centres unmarked) [NBD-14306], the CC50 (TZM-bl cells) is given as greater than 113 µM.

For `NC[C@H](NC(=O)c1ccc(-c2ccc(C(F)(F)F)cc2)[nH]1)c1nc(CO)cs1` [NBD-14189], the “Fold-change from best inhibitor (IC50)” value (recombinant HIV-1 RT [1]; RT IC50 relative to best inhibitor (NBD-14189)) was 1 and the “Fold-change from best inhibitor (EC50)” value (HIV-1HXB2) was 1.

For `NC[C@@H](NC(=O)c1ccc(-c2ccc(Cl)c(F)c2)[nH]1)c1ncc(CO)s1` [NBD-14075], the “increase in the IC50 value” (recombinant HIV-1 RT [1]; 075 vs. 189 and 270) was ~ 10 fold.

For `CC1(C)CC(NC(=O)C(=O)Nc2ccc(Cl)cc2)CC(C)(C)N1` [NBD-556], the pIC50 (recombinant HIV-1 RT [2]) is listed as less than 3.70.
